Values belong to the compound of their own block, whether it stands above or below them. Calls of active or inactive are those of the source.
What was measured:
[1] = molecular target: Aryl hydrocarbon receptor (Homo sapiens, UniProt P35869); assay: Luminescence-based cell-based high throughput dose response assay for activators of the Aryl Hydrocarbon Receptor (AHR). [Related pubchem assays: 2796 (Primary screen (AHR activators in singlicate)), 2845 (Confirmation screen (AHR activators in triplicate)), 434939 (Counterscreen (PXR activators in triplicate)), 2804 (Summary (AHR activators))]; assay type: ADME
Aryl hydrocarbon receptor, sequence (P35869 whole entry): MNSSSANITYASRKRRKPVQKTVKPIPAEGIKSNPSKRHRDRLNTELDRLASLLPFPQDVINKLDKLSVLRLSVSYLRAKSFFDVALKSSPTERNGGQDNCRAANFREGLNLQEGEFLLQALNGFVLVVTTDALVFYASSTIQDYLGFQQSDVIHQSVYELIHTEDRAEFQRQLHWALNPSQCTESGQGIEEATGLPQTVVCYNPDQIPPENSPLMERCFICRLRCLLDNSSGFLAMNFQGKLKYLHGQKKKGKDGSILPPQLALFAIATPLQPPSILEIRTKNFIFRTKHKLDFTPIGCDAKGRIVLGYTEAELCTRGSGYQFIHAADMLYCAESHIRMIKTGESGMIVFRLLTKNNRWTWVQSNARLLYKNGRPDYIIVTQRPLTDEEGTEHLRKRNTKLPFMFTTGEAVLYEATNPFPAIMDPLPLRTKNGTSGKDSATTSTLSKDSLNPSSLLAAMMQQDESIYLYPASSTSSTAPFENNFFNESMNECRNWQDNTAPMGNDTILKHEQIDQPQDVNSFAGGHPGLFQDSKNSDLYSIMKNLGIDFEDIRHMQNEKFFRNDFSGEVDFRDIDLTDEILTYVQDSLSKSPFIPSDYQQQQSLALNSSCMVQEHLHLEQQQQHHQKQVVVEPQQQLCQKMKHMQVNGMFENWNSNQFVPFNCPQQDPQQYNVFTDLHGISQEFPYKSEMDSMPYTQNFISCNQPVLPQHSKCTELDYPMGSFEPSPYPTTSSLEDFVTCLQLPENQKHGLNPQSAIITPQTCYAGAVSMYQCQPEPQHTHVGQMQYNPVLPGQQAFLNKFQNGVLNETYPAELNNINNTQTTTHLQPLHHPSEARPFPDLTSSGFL

[2] = molecular target: Cytochrome P450 2D6 (Homo sapiens, UniProt P10635);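 note: CYP2D6 member of a cytochrome P450 panel assay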
Cytochrome P450 2D6, sequence (P10635 whole entry): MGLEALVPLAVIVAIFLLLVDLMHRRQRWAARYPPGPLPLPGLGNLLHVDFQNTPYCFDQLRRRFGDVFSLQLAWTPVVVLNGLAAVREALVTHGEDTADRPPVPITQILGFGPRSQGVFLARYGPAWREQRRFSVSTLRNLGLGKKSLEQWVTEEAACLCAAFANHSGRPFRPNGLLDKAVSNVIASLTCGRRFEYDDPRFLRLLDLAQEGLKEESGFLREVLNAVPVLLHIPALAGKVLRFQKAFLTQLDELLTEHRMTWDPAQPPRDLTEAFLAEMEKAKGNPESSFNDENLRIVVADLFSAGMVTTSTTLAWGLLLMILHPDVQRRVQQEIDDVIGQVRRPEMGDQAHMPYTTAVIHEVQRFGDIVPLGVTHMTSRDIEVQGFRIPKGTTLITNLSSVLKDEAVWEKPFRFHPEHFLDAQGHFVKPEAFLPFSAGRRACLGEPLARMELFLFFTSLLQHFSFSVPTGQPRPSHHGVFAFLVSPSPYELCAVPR

[3] = molecular target: Cytochrome P450 3A4 (Homo sapiens, UniProt P08684);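 note: CYP3A4 tested as one member of a cytochrome P450 panel screen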
Cytochrome P450 3A4, sequence (P08684 whole entry): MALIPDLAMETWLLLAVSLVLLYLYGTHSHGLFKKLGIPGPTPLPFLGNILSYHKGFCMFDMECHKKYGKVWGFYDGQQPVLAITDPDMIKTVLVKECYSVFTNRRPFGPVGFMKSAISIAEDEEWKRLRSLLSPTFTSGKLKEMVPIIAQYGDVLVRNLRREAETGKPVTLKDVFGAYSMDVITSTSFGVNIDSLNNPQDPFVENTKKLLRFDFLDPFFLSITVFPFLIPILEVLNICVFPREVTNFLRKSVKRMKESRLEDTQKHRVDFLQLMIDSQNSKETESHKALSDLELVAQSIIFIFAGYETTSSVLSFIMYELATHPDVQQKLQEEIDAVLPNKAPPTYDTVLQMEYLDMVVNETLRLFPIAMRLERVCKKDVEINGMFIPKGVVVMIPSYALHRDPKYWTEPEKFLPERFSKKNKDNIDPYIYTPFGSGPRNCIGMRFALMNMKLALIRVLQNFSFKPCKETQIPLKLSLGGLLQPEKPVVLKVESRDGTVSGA

[4] = molecular target: Voltage-gated inwardly rectifying potassium channel KCNH2 (Homo sapiens, UniProt Q12809); assay: hERG protection from proarrhythmic block, potency, dose response, cell-based, thallium flux (AID 2121); assay type: ADME
Voltage-gated inwardly rectifying potassium channel KCNH2, sequence (Q12809 whole entry): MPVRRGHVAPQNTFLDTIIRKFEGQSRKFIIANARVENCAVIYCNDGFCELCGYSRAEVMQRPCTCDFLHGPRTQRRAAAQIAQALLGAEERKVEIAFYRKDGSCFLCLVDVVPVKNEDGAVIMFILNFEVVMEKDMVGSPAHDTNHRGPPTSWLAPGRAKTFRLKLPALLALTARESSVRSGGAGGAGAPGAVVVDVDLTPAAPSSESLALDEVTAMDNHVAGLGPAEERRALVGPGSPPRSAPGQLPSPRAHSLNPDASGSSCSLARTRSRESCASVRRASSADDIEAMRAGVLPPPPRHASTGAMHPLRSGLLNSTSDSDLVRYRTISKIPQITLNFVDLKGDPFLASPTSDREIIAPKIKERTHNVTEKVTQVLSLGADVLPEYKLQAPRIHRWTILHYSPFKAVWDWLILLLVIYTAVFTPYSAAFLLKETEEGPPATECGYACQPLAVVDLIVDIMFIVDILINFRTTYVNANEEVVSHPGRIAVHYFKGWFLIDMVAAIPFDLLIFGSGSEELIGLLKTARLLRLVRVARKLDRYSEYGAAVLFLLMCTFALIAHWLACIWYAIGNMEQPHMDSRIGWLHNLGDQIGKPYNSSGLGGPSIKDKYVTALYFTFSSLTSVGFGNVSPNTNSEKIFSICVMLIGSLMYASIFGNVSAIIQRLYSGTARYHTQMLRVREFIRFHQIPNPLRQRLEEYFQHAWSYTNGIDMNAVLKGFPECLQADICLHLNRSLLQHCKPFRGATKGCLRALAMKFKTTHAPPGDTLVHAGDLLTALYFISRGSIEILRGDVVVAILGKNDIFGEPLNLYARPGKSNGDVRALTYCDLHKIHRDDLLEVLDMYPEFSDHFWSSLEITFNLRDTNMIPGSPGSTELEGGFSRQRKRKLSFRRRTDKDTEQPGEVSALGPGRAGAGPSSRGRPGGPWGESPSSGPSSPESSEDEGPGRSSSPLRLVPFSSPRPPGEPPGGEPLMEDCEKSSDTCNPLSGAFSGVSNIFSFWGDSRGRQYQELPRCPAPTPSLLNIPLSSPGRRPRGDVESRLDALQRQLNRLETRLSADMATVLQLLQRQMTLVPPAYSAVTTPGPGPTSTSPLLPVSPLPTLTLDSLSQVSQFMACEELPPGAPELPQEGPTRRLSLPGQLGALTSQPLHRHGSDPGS

[5] = molecular target: T1, Rac GTPase-activating protein 1 (Homo sapiens, UniProt Q9H0H5); assay: MgcRacGAP GTPase-activating activity inhibitors, confirmation, biochemical, ADP Hunter fluorescence, primary and confirmatory (AID 624330); assay type: functional
T1 sequence (Q9H0H5 whole entry): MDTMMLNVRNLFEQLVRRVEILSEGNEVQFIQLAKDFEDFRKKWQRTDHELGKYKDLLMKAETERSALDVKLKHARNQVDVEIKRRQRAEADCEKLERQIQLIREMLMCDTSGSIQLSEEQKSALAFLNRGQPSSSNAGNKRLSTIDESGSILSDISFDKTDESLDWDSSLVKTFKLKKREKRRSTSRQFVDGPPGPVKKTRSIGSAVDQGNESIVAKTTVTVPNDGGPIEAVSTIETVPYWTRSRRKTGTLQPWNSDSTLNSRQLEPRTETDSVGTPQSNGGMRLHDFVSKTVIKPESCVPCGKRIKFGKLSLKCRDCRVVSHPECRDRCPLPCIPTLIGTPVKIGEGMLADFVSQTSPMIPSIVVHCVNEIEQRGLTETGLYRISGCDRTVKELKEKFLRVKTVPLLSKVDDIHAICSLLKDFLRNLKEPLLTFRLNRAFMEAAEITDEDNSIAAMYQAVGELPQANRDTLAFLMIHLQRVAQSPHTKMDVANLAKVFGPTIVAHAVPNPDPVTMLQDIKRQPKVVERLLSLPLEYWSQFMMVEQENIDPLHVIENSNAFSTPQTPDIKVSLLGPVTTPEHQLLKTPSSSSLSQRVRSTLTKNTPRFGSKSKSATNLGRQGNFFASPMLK

[6] = molecular target: T2, Neuropeptide Y receptor type 1 (Homo sapiens, UniProt P25929); assay type: functional;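 note: HEK293 cells with a CNG channel challenged with NPY then isoproterenol; potency as antagonist that reverses NPY suppression of cAMP signal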
T2 sequence (P25929 whole entry): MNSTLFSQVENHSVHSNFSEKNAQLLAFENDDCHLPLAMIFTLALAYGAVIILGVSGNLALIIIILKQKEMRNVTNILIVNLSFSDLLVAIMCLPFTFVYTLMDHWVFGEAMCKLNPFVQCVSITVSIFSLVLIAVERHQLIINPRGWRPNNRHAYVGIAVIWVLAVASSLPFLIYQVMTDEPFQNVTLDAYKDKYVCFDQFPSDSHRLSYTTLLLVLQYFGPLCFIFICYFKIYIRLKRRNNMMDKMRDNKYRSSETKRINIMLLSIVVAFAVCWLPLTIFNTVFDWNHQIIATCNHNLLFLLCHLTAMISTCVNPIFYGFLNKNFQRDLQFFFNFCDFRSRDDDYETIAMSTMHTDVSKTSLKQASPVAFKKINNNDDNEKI

[7] = molecular target: T3, Neuropeptide Y receptor type 2 (Homo sapiens, UniProt P49146); assay type: functional, cell-based;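 note: HEK293 cells expressing the receptor and a CNG channel; stimulus was NPY near EC95 followed by isoproterenol to raise cAMP; antagonist potency measured as restoring cAMP signal that NPY suppresses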
T3 sequence (P49146 whole entry): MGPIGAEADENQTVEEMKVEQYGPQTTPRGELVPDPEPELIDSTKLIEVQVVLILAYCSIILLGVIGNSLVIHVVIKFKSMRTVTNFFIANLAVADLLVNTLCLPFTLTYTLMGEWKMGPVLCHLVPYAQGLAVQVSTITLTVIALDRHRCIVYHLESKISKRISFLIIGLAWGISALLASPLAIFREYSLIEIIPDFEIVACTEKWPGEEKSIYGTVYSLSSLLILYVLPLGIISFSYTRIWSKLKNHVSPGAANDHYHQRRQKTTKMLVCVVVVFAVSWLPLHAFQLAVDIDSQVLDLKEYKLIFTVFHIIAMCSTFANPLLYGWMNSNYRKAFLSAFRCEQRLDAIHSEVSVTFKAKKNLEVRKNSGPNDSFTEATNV

[8] = molecular target: Solute carrier family 12 member 2/member 5 (Homo sapiens, UniProt P55011+Q9H2X9); assay: KCC2 and NKCC1 inhibition by rubidium flux, cell-based, NKCC1 counter-screen (AID 1734); assay type: functional, HEK293
[9] = molecular target: NADPH oxidase 1 (Homo sapiens, UniProt Q9Y5S8); assay: Late-stage luminescence-based cell-based dose response assay to identify inhibitors of NADPH oxidase 1 (NOX1): Purchased analogs 2.; assay type: functional
NADPH oxidase 1, sequence (Q9Y5S8 whole entry): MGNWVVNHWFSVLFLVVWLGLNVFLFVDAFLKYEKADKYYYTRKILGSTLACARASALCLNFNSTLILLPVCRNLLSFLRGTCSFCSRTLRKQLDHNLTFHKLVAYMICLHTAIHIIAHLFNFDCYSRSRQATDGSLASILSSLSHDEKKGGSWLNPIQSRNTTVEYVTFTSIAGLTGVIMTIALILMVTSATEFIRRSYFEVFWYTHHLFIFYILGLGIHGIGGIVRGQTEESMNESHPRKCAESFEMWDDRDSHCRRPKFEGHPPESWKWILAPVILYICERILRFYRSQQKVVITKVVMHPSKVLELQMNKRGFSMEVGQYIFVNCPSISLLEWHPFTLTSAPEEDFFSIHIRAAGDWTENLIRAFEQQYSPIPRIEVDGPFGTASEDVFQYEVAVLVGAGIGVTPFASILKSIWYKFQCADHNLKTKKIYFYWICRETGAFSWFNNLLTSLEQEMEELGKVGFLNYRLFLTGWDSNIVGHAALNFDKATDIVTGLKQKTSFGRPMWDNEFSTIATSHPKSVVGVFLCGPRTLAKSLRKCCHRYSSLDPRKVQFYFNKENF

[10] = molecular target: Serine/threonine-protein phosphatase PP1-alpha catalytic subunit (Homo sapiens, UniProt P62136); assay: PP1 phosphatase inhibitors, dose response, biochemical, fluorescence (AID 2394)
Serine/threonine-protein phosphatase PP1-alpha catalytic subunit, sequence (P62136 whole entry): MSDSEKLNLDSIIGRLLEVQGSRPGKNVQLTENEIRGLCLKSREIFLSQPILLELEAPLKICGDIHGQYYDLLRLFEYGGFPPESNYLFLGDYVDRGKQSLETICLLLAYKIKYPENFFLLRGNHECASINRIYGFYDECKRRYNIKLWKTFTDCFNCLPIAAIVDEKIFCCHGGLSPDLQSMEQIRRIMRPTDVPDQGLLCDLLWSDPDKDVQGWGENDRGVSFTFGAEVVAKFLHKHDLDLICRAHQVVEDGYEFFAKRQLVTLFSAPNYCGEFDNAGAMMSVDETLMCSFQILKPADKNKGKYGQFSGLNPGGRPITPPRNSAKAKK

[11] = molecular target: Serine/threonine-protein phosphatase (Homo sapiens, UniProt Q9BPW0); assay: PP5 phosphatase inhibitors, dose response, biochemical, fluorescence (AID 2395)
Serine/threonine-protein phosphatase, sequence (Q9BPW0 whole entry): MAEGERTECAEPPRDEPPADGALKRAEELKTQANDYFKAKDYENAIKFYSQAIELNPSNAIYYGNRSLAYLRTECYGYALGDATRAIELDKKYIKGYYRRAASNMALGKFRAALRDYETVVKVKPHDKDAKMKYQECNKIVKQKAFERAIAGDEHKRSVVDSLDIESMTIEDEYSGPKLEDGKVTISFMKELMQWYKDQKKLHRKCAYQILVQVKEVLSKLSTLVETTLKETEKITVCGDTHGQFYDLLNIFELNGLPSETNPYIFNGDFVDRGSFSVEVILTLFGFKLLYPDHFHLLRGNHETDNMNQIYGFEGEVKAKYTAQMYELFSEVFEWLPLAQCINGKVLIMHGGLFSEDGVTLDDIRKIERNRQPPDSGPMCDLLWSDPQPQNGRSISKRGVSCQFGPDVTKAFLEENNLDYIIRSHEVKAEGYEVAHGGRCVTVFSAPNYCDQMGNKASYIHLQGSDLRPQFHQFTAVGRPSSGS

[12] = Artemis endonuclease inhibitor potency, dose response, biochemical, fluorescence intensity (AID 720701); assay type: functional;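 note: Artemis endonuclease enzyme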

EC50 [1]: 9.35 µM (active)
AC50 [2]: inconclusive
AC50 [3]: inconclusive
Compound: Cc1cc(C)nc(Nc2ncc(O)n2-c2ccccc2)n1

IC50 [5]: 153 µM (active)
Compound: O=[N+]([O-])c1ccccc1OCCNCc1ccccc1
EC50 [4]: 4.78 µM (active)

IC50 [6]: 5.34 µM (active)
IC50 [7]: 9.08 µM (active)
Compound: O=C(N/N=C/c1ccco1)c1ccccc1OCc1ccc(Br)cc1

IC50 [8]: 19.7 µM (active)
Compound: Cc1cnc(NC(=O)CSc2nnc(Cc3ccccc3)o2)s1

IC50 [9]: 6.22 µM (active)
Compound: CC(=O)Nc1ccc(/C=N/Nc2ccccc2)cc1

IC50 [10]: > 67 µM (not active)
IC50 [11]: 9.67 µM (active)
IC50 [12]: > 20 µM (inactive)
Compound: CCCN(CC1CC1)c1nc(N)c2c(N)nc(OC)cc2c1C#N
